The values that follow come from patent US7943795B2, “Vitamin D receptor modulators” (Eli Lilly and Company, priority 2004, dated 2011).

For one data set, the system named is rat osteocalcin promoter. As to the kind of experiment: OCN (osteocalcin) promoter assay. The conditions noted are these: RG-15 (ROS 17/2.8) cells, 48 hr treatment, luciferase reporter. Format: cell-based. The protocol:
4. The OCN Promoter test is described in the “Assay” section of the Description, infra.
The OCN (Osteocalcin) Promoter Assay
The OCN Promoter Assay is an indicator and marker for osteoporosis. Desired assay results are EC50 less than or equal to 325 nM. Preferred assay results are less than 50 nM.
The activation of osteocalcin by VDR ligands is evaluated in a rat osteoblast-like cell line RG-15 (ROS 17/2.8) stably expressing rat osteocalcin promoter fused with luciferase reporter gene. The stable cell lines are established as reported before (Activation of Osteocalcin Transcription involves interaction of protein kinase A- and Protein kinase C-dependent pathways. Boguslawski, G., Hale, L. V., Yu, X.-P., Miles, R. R., Onyia, J. E., Santerre R. F., Chandrasekhar, S. J Biol. Chem. 275, 999-1006, 2000). Confluent RG-15 cells maintained in DMEM/F-12 medium (3:1) containing 5% FBS, 300 μg/ml G418 and at 37° C. under 5% CO2/95% air atmosphere are trypsinized (0.25% trypsin) and plated into white opaque 96-well cell culture plates (25000 cells/well). After 24 hr, cells (in DMEM/F-12 medium+2% FBS) are treated with various concentrations of compounds, dissolved in DMSO. The final DMSO concentration remains at 0.01% (v/v). After 48 hr treatment, the medium is removed, cells are lysed with 50 μl of lysis buffer (From Luciferase reporter assay system, Roche Diagnostics, Indianapolis, Ind.) and then assayed for luciferase activity using the Luciferase Reporter Gene Assay kit from Boehringer Mannheim as per manufacturer's specifications.
In general terms: In a reporter assay the amount or activity of a reporter protein is the signal.

Data set [1] can be described thus: Mouse hypercalcemia assay. Format: in vivo. The protocol:
5. The Mouse Hypercalcemia test is described in the “Assay” section of the Description, infra.
The Mouse Hypercalcemia Assay
The Mouse Hypercalcemia Assay is a six day hypercalcemia test for toxicity and selectivity. Acceptable test results are levels greater than 30 μg/kg/day. Preferred assay results are levels greater than 300 μg/kg/day.
Weanling, virus—antibody-free, five to six weeks old female DBF mice (Harlan, Indianapolis, Ind.) are used for all the studies. Animals are allowed to acclimate to local vivarium conditions for 2 days. Mice are maintained on a 12 hr light/dark cycle at 22° C. with ad lib access to food (TD 5001 with 1.2% Ca and 0.9% P, Teklad, Madison, Wis.) and water. The animals then are divided into groups with 4-5 mice per group. Different doses of test compounds prepared in 10% ethanol and 90% sesame oil, or in an aqueous suspension of sodium lauryl sulfate and CMC (the latter formulation for acidic compounds) are administered to mice orally via gavage for 6 days. 1α-25(OH)2D3 0.5 μg/kg/d was also given to one group of mice as the positive control. Serum ionized calcium is evaluated at 6 hours after the last dosing under isoflurane anesthesia by Ciba-Corning Ca++/PH Analyzer, (Model 634, Chiron Diagnostics Corp., East Walpole, Mass.). Raw data of group differences is assessed by analysis of variance (ANOVA) using Fisher's protected least significant difference (PLSD) where the significance level was P<0.05.

Setting [2] is: no effect level: highest dose that did not cause hypercalcemia, oral gavage for 6 days, female DBF mice, serum ionized calcium.
Setting [3] is: female, DBF, mouse, in vivo, po, 6 days.

In general, EC50 refers to the concentration that produces a half-maximal response.

As to `CCC(CC)(c1ccc(OCC(O)C(C)(C)C)c(C)c1)c1ccc2cc(C(=O)O)ccc2c1` (single isomer, unassigned) [Ex. 2A, 6-{1-Ethyl-1-[4-(2-hydroxy-3,3-dimethyl-butoxy)-3-methyl-phenyl]-propyl}-naphthalene-2-carboxylic acid], the concentration giving a half-maximal response (EC50) in the data set on rat osteocalcin promoter came to 6 nM. Besides, the “Mouse Hypercal” value in data set [1] (setting [2]) was 300 µg/kg/day.
In the case of `CCC(CC)(c1ccc(OCC(=O)C(C)(C)C)c(C)c1)c1ccc2cc(C(=O)O)ccc2c1` [Ex. 1, 6-{1-[4-(3,3-dimethyl-2-oxobutoxy)-3-methylphenyl]-1-ethylpropyl}naphthalene-2-carboxylic acid], the half-maximal effective concentration (EC50) with rat osteocalcin promoter (Rattus norvegicus, 48 h) came out at 2.6 nM. The “Mouse Hypercal” value in data set [1] (setting [3]) was 1000 µg/kg/day.
As to `CCC(CC)(c1ccc(OCC(=O)C(C)(C)C)c(C)c1)c1ccc2cc(C(=O)NCC(=O)O)ccc2c1` [Ex. 3, [(6-{1-[4-(3,3-Dimethyl-2-oxo-butoxy)-3-methylphenyl]-1-ethylpropyl}naphthalene-2-carbonyl)amino]acetic acid], in the data set on rat osteocalcin promoter (Rattus norvegicus, 48 h), the EC50 amounted to 0.1 nM. The “Mouse Hypercal” value in data set [1] (setting [2]) is less than 300 µg/kg/day.
For the molecule `CCC(CC)(c1ccc(OCC(=O)C(C)(C)C)c(C)c1)c1ccc2cc(C(=O)N(C)C)ccc2c1` [Ex. 4, 6-{1-[4-(3,3-dimethyl-2-oxobutoxy)-3-methylphenyl]-1-ethylpropyl}naphthalene-2-carboxylic acid dimethylamide], the EC50 with rat osteocalcin promoter (Rattus norvegicus, 48 h) is 41 nM. For the same molecule, the “Mouse Hypercal” value in data set [1] (setting [3]) is 1000 µg/kg/day.
For `CCC(CC)(c1ccc(OCC(=O)C(C)(C)C)c(C)c1)c1ccc2cc(C(=O)N(C)CC(=O)O)ccc2c1` [Ex. 5, [(6-{1-[4-(3,3-Dimethyl-2-oxobutoxy)-3-methylphenyl]-1-ethylpropyl}naphthalene-2-carbonyl)methylamino]acetic acid], the 50% effective concentration (EC50) in the data set on rat osteocalcin promoter (Rattus norvegicus, 48 h) came to 0.2 nM. Besides, in data set [1] (setting [2]), the “Mouse Hypercal” value is less than 30 µg/kg/day.
